Marks after values point to notes of the source that are not given here.
Legend:
[1] = system: Rabbit Psoas myofibrils (skeletal myosin ATPase); test: Myofibril ATPase assay, rabbit psoas (skeletal) myofibrils; assay type: biochemical; settings: rabbit psoas myofibrils
Experimental: (§1) Example 1. Myofibril ATPase Assay
(§2) Myofibril ATPase assays are known in the art to be useful in evaluating small molecules for the treatment of HCM and other cardiac indications. Myosin ATPase activity is assessed by using a coupled reaction system, in which ADP generated by the myosin ATPase function is coupled to the disappearance of NADH through the pyruvate kinase/lactate dehydrogenase (PK-LDH) system. ATPase activity produces ADP, which is used as a substrate for PK to produce pyruvate and regenerate ATP. The pyruvate is then used as a substrate by LDH to oxidize NADH to NAD+. The rate of the reaction is monitored through the time-dependent disappearance of NADH using absorbance at 340 nm, which, when the couple system is in stoichiometric excess, is directly correlated to the ATPase activity of the myosin. Inhibition of ATPase activity by the assayed compounds is indicated by a reduced rate of NADH loss, relative to vehicle-treated controls, over the experimental time window. Activation of ATPase activity by the assayed compounds is indicated by an increased rate of NADH loss, relative to vehicle-treated controls, over the experimental time window. Rabbit Psoas, Porcine atria, and Porcine ventricle are the primary sources of myofibril material.
(§3) Materials: The following stock solutions and reagents were used in the Myofibril ATPase Assay:
(§4) Stock Solutions of pCa buffer. Combine PIPES, CaCl2, and EGTA solutions with water. Adjust pH to 7.0 and bring final volume to 100 mL.
(§5) Buffer A & Buffer B. Prepare buffers A and B according to the table below.
(§6) Myofibril ATPase Assay Procedure: BSA, ATP, NADH, PEP, and DTT solutions were thawed at room temperature, then transferred to ice. Pellet-frozen myofibrils were transferred with approximately twice the required volume into a sufficiently large tube and capped. Myofibrils were thawed by rolling in a water bath for approximately 15 min at room temperature and cooled on ice. Buffers A and B were prepared by adjusting volumes as necessary for required number of wells and stored on ice. 0.5 μL of the compounds to be assayed were added into wells. 25 μL of Buffer A was dispensed into the wells, followed by 25 μL of Buffer B. The wells were measured for absorbance at 340 nm, using a kinetic protocol in which the wells are read every 1.5-2 min for 75 min. Assay data analysis was performed using a python script that filtered the raw data to retain those points falling between a starting and ending time and between a maximum and minimum absorbance, then used the filtered time-domain 340 nm absorbance data in each well to calculate a slope via linear regression analysis in units of mAU/min. Compound slopes were normalized between 100% and 0% activity, where 100% represented the slope of wells containing only compound vehicle, and fit to a 4-parameter logistic model. In addition to the fit parameters, the EC25% values were calculated, relative to the 100% normalized value. Additionally, the Y125 values were calculated for compounds that increased myosin ATP-ase activity. Fit parameters, calculated effective concentrations, filtered raw data, and calculated slopes were exported, in addition to compound-specific graphs of normalized ATPase activity versus concentration in μM. Each value reported in Table 5, Table 6, and Table 7 is either a Y75 value or a Y125 value. Values without a double cross sign, ‡, are Y75 values, which reflect the concentration required to reduce myosin ATP-ase activity by 25% (e.g., Y-axis activity value is 75% of initial value), relative to myosin ATP-ase activity in the absence of exogenous compound.
Skeletal Myofibril Isolation:
(§7) Myofibrils from various animals and tissue types were acquired from a variety of sources: rabbit psoas muscle was purchased from Pel-Freez Biologicals (Rogers, AR) and porcine cardiac muscle was purchased from Exemplar Genetics. All myofibrils were prepared using a method based upon those described in Herrmann et al. (1993) and summarized here. […]

[2] = molecular target: T1, Porcine ventricle myofibrils (ventricular myosin ATPase) (Sus scrofa, UniProt P79293); test: Myofibril ATPase assay, porcine ventricle myofibrils; assay type: biochemical, porcine (Yucatan minipigs); settings: porcine ventricle myofibrils
T1 construct: Myofibrils from porcine cardiac muscle was isolated from the left ventricle of Yucatan minipigs; tissue Exemplar Genetics; host or cells: left ventricle of Yucatan minipigs, myofibrils prepared in house
T1 sequence (P79293 whole entry): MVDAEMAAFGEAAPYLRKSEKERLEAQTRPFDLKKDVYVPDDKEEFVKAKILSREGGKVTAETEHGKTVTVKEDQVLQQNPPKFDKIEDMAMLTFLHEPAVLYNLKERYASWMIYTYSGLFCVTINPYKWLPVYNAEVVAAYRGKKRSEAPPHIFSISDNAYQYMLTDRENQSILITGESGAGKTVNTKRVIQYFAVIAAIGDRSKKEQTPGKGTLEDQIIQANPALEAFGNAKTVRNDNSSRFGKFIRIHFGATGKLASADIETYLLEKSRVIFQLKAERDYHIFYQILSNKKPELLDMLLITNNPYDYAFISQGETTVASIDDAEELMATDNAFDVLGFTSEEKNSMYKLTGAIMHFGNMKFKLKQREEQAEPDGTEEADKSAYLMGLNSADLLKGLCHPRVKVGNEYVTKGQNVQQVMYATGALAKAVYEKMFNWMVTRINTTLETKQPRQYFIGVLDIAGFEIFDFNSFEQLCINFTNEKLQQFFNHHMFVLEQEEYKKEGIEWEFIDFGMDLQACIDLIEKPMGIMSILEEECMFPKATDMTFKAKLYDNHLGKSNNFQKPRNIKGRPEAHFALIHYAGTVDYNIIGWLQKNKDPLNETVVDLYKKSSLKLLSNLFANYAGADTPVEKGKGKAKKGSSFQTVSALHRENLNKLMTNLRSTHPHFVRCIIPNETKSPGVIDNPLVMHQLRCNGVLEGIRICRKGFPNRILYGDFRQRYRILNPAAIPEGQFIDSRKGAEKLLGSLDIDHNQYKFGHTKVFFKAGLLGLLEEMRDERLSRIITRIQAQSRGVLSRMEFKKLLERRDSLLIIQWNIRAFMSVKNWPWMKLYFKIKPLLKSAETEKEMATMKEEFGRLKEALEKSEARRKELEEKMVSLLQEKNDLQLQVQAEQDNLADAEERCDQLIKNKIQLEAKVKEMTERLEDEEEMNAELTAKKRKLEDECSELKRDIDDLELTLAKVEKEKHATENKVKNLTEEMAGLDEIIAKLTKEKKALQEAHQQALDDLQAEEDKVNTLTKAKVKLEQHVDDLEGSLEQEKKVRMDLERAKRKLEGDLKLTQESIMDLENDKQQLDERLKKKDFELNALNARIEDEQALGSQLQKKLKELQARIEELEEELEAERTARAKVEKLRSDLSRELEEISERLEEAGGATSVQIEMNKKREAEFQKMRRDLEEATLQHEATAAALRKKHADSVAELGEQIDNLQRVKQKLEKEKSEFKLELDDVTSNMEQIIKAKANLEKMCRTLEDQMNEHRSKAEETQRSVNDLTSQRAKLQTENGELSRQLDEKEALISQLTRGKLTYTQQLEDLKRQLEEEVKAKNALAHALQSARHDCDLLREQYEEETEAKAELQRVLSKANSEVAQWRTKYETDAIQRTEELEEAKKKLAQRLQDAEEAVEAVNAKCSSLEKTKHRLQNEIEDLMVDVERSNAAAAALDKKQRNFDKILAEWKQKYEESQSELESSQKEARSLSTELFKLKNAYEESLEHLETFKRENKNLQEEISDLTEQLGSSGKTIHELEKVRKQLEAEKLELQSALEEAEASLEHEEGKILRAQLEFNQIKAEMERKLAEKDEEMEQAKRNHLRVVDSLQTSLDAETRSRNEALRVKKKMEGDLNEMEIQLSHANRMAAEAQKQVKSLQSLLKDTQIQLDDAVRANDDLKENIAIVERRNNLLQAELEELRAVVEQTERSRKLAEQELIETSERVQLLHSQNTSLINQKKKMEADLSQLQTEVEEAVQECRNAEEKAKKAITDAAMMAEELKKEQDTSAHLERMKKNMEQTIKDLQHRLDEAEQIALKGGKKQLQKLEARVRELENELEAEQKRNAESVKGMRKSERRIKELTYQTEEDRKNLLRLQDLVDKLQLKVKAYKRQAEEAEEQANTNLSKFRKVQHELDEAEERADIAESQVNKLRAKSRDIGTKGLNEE
Experimental: as §1, §2, §3, §4, §5, §6
Cardiac Myofibril Isolation:
Myofibrils from porcine cardiac muscle was isolated from the left ventricle of Yucatan minipigs. Myofibrils were prepared using a method based upon those described in Herrmann et al. (1993) and summarized here. […]

[3] = system: Porcine atria myofibrils (atrial myosin ATPase); test: Myofibril ATPase assay, porcine atria myofibrils; assay type: biochemical; settings: porcine atria myofibrils
Experimental: as §1, §2, §3, §4, §5, §6, §7

[4] = Y75 value (75% activity relative to no compound)

Cc1c(CC(=O)N[C@H](C)c2ncc(C#N)cc2F)c(=O)[nH]c2ccc(F)c(Cl)c12 (single isomer, unassigned) [compound 2051]
Skeletal EC25 ([1]; Y75 value (no ‡ mark)): 0.16 µM | Ventricular EC25 ([2]; Y75 value (no ‡ mark)): 0.60 µM | Atrial EC25 ([3]; Y75 value (no ‡ mark)): 0.43 µM

Cc1c(C2(C(=O)N[C@@H](C)c3ncc(C#N)cc3F)CC2)c(=O)[nH]c2ccc(F)cc12 (single isomer, unassigned) [compound 2597]
Skeletal EC25 ([1]; Y75 value (no ‡ mark)): 0.12 µM | Ventricular EC25 ([2]; Y75 value (no ‡ mark)): 0.39 µM | Atrial EC25 ([3]; Y75 value (no ‡ mark)): 0.09 µM

Cc1c(CC(=O)N[C@@H](C)c2ccc(C#N)cn2)c(=O)[nH]c2ccc(C(F)(F)F)nc12 [compound 460]
Skeletal EC25 ([1]; Y75 value): 100.00 µM | Ventricular EC25 ([2]; Y75 value): 30.78 µM | Atrial EC25 [3, 4]: 1.53 µM

Cc1nccc2[nH]c(=O)c(CC(=O)N[C@@H]3COc4cc(C#N)cc(F)c43)c(C)c12 (single isomer, unassigned) [compound 177]
Skeletal EC25 ([1]; Y75 value): 0.02 µM | Ventricular EC25 ([2]; Y75 value): 0.09 µM | Atrial EC25 [3, 4]: 0.06 µM

Cc1c(CC(=O)N[C@H](C)c2cnc(C#N)nc2)c(=O)[nH]c2cc(F)c(F)cc12 (single isomer, unassigned) [compound 2074]
Skeletal EC25 ([1]; Y75 value (no ‡ mark)): 4.03 µM | Ventricular EC25 ([2]; Y75 value (no ‡ mark)): 10.13 µM | Atrial EC25 ([3]; Y75 value (no ‡ mark)): 9.01 µM

Cc1c(C2(C(=O)N[C@@H](C)c3ncc(C#N)cn3)CC2)c(=O)[nH]c2ccc(F)c(C#N)c12 (single isomer, unassigned) [compound 2532]
Skeletal EC25 ([1]; Y75 value (no ‡ mark)): 1.49 µM | Ventricular EC25 ([2]; Y75 value (no ‡ mark)): 45.96 µM | Atrial EC25 ([3]; Y75 value (no ‡ mark)): 0.89 µM

Cc1c(CC(=O)N[C@@H](C)c2ccc(C#N)cn2)c(=O)[nH]c2ccncc12 [compound 467]
Skeletal EC25 ([1]; Y75 value): 16.00 µM | Ventricular EC25 ([2]; Y75 value): 100.00 µM | Atrial EC25 [3, 4]: 100.00 µM

Cc1ccc([C@@H](C)NC(=O)Cc2c(C)c3c(C)nccc3[nH]c2=O)cc1 (single isomer, unassigned) [compound 301]
Skeletal EC25 ([1]; Y75 value): 100.00 µM | Ventricular EC25 ([2]; Y75 value): 100.00 µM | Atrial EC25 [3, 4]: 100.00 µM

Cc1c(C(F)(F)C(=O)N[C@H](C)c2ncc(C#N)cc2F)c(=O)[nH]c2ccc(F)cc12 (single isomer, unassigned) [compound 2606]
Skeletal EC25 ([1]; Y75 value (no ‡ mark)): 0.10 µM | Ventricular EC25 ([2]; Y75 value (no ‡ mark)): 0.77 µM | Atrial EC25 ([3]; Y75 value (no ‡ mark)): 0.08 µM

Cc1cc([C@H](C)NC(=O)Cc2c(O)c3c(C)c(F)ccc3[nH]c2=O)ncc1F [compound 1117]
Skeletal EC25 ([1]; Y75 value (no ‡ mark)): 100.00 µM | Ventricular EC25 ([2]; Y75 value (no ‡ mark)): 46.61 µM | Atrial EC25 ([3]; Y75 value (no ‡ mark)): 100.00 µM

Cc1c(CC(=O)N[C@H]2COc3cc(C#N)cnc32)c(=O)[nH]c2ccc(F)cc12 [compound 1063]
Skeletal EC25 ([1]; Y75 value (no ‡ mark)): 0.22 µM | Ventricular EC25 ([2]; Y75 value (no ‡ mark)): 0.76 µM | Atrial EC25 ([3]; Y75 value (no ‡ mark)): 0.16 µM

Cc1c(CC(=O)N[C@H](C)c2ncc(C#N)cc2F)c(=O)[nH]c2cc(F)c(F)cc12 [compound 1104]
Skeletal EC25 ([1]; Y75 value (no ‡ mark)): 0.03 µM | Ventricular EC25 ([2]; Y75 value (no ‡ mark)): 0.21 µM | Atrial EC25 ([3]; Y75 value (no ‡ mark)): 0.14 µM

Cc1c(CC(=O)N[C@H](C)c2ccc(C#N)cc2F)c(=O)[nH]c2cnnc(C#N)c12 [compound 171]
Skeletal EC25 ([1]; Y75 value): 15.02 µM | Ventricular EC25 ([2]; Y75 value): 100.00 µM | Atrial EC25 [3, 4]: 22.46 µM

C[C@@H](NC(=O)Cc1cc2cc(F)c(F)cc2[nH]c1=O)c1ncc(C#N)cn1 (single isomer, unassigned) [compound 2035]
Skeletal EC25 ([1]; Y75 value (no ‡ mark)): 5.70 µM | Ventricular EC25 ([2]; Y75 value (no ‡ mark)): 38.21 µM | Atrial EC25 ([3]; Y75 value (no ‡ mark)): 2.19 µM

Cc1nccc2[nH]c(=O)c(CC(=O)N[C@@H](C)c3ccc(F)cc3F)cc12 [compound 445]
Skeletal EC25 ([1]; Y75 value): 0.43 µM | Ventricular EC25 ([2]; Y75 value): 20.53 µM | Atrial EC25 [3, 4]: 2.32 µM

C[C@H](NC(=O)Cc1c(C2CC2)c2cc(F)ccc2[nH]c1=O)c1ccc(F)cc1F [compound 114]
Skeletal EC25 ([1]; Y75 value (no ‡ mark)): 0.06 µM | Ventricular EC25 ([2]; Y75 value (no ‡ mark)): 4.54 µM | Atrial EC25 ([3]; Y75 value (no ‡ mark)): 3.86 µM

C[C@H](NC(=O)Cc1cc2ccc(F)cc2[nH]c1=O)c1ncc(C#N)cn1 (single isomer, unassigned) [compound 2034]
Skeletal EC25 ([1]; ‡ Y125 value, not a Y75 value (125% activity relative to no compound)): 100.00‡ μM | Ventricular EC25 ([2]; Y75 value (no ‡ mark)): 100.00 µM | Atrial EC25 ([3]; Y75 value (no ‡ mark)): 100.00 µM

Cc1c(CC(=O)N[C@H](C)c2ccc(C#N)cn2)c(=O)[nH]c2ccc(OC(F)(F)F)nc12 [compound 449]
Skeletal EC25 ([1]; Y75 value): 100.00 µM | Ventricular EC25 ([2]; Y75 value): 100.00 µM | Atrial EC25 [3, 4]: 100.00 µM

Cc1c(CC(=O)N[C@H](C)c2ccc(S(C)(=O)=O)cc2F)c(=O)[nH]c2ccnc(C#N)c12 (single isomer, unassigned) [compound 214]
Skeletal EC25 ([1]; Y75 value): 23.30 µM | Ventricular EC25 ([2]; Y75 value): 100.00 µM | Atrial EC25 [3, 4]: 100.00 µM

Cc1c(CC(=O)N[C@@H]2COc3cc(F)cc(F)c32)c(=O)[nH]c2ccnc(C#N)c12 (single isomer, unassigned) [compound 273]
Skeletal EC25 ([1]; Y75 value): 0.97 µM | Ventricular EC25 ([2]; Y75 value): 4.08 µM | Atrial EC25 [3, 4]: 2.50 µM

Cc1cc(F)cnc1[C@H](C)NC(=O)C(F)(F)c1c(C)c2cc(F)ccc2[nH]c1=O (single isomer, unassigned) [compound 4808]
Skeletal EC25 ([1]; Y75 value (no ‡ mark)): 100.00 µM | Ventricular EC25 ([2]; Y75 value (no ‡ mark)): 100.00 µM

Cc1cc(F)cnc1[C@@H](C)NC(=O)C(F)(F)c1c(C)c2cc(F)ccc2[nH]c1=O (single isomer, unassigned) [compound 4807]
Skeletal EC25 ([1]; Y75 value (no ‡ mark)): 0.82 µM | Ventricular EC25 ([2]; Y75 value (no ‡ mark)): 1.39 µM

C[C@H](NC(=O)[C@H](C)c1cc2c(C3CC3)nccc2[nH]c1=O)c1ccc(F)cc1F (single isomer, unassigned) [compound 3506]
Skeletal EC25 (Y125 value, marked ‡) ([1]; Y125 value, not a Y75 value): 108.50‡ μM | Ventricular EC25 ([2]; Y75 value): 100.00 µM

Cc1c(C(F)(F)C(=O)N[C@H]2COc3cc(C#N)cc(F)c32)c(=O)[nH]c2ccc(F)cc12 (single isomer, unassigned) [compound 2554]
Ventricular EC25 ([2]; Y75 value (no ‡ mark)): 0.20 µM | Atrial EC25 ([3]; Y75 value (no ‡ mark)): 0.09 µM

C[C@H](NC(=O)Cc1cc2c(O)nccc2[nH]c1=O)c1ccc(F)cc1F [compound 3013]
Skeletal EC25 ([1]; Y75 value): 100.00 µM | Ventricular EC25 ([2]; Y75 value): 100.00 µM

Cc1c(Cl)ccc2[nH]c(=O)c(CC(=O)N[C@@H](C)c3ncc(C#N)cc3F)c(C)c12 (single isomer, unassigned) [compound 2046]
Ventricular EC25 ([2]; Y75 value (no ‡ mark)): 0.10 µM | Atrial EC25 ([3]; Y75 value (no ‡ mark)): 0.05 µM

Source: patent US12448369B2 (Edgewise Therapeutics, Inc., priority 2023, dated 2025)
